In ChEMBL document CHEMBL5346952, “Dimer Peptide Ligands of Vascular Endothelial Growth Factor: Optimizing Linker Length for High Affinity and Antiangiogenic Activity” (J Med Chem, 2023):
Starred links: 1 amine or outer side, 2 acyl side, 3 side chain; linkers in the order of their positions; H or OH if unused. Positions of bridges follow the written chain, without caps; N, C: chain ends. Residues, ends and D or L forms follow the SMILES beside them. Chains are numbered I, II in the order given. *: point of attachment. X2 = O=C(O)CCOCCOCCOCCOCCOCCOCCOCCOCCOCCOCCOCCOCCOCCOCCOCCOCCOCCOCCOCCOCCOCCOCCOCCOCCOCCC(=O)*; X3 = O=C(CCOCCOCCOCCOCCOCCOCCOCCOCCOCCOCCOCCOCCOCCOCCOCCOCCOCCOCCOCCOCCOCCC(=O)[*:2])[*:1]; CO(CH2CH2O)13CH2CH2CO = O=C(CCOCCOCCOCCOCCOCCOCCOCCOCCOCCOCCOCCOCCOCCC(=O)[*:2])[*:1]; CO(CH2CH2O)5CH2CH2CO = O=C(CCOCCOCCOCCOCCOCCC(=O)[*:2])[*:1]

Tests used:
[1] = target: T1, Vascular endothelial growth factor A, long form (Homo sapiens, UniProt P15692); experiment: Binding affinity to human VEGF (13 to 107 residues) expressed in Escherichia coli Rosetta (DE3) cells assessed as dissociation constant at 37 degreeC by isothermal titration calorimetry analysis
T1 sequence (P15692 whole entry): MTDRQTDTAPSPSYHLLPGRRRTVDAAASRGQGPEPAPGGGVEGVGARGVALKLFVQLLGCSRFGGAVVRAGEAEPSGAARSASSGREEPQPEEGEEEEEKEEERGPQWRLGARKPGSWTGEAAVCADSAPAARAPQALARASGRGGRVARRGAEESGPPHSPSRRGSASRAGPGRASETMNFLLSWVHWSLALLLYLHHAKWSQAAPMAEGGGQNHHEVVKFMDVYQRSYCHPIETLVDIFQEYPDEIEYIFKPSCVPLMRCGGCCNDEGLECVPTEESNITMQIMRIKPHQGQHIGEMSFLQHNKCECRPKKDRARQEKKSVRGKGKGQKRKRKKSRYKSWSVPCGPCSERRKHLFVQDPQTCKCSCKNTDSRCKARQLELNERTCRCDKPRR

[2] = target: T2, Vascular endothelial growth factor A, long form (Homo sapiens) (UniProt P15692); experiment: Binding affinity to human VEGF (13 to 107 residues) expressed in Escherichia coli Rosetta (DE3) cells assessed as change in entropy at 20 degreeC by isothermal titration calorimetry analysis
T2 sequence (whole entry): T1 sequence (P15692 whole entry)

[3] = target: T2, Vascular endothelial growth factor A, long form (Homo sapiens); experiment: Binding affinity to human VEGF (13 to 107 residues) expressed in Escherichia coli Rosetta (DE3) cells assessed as change in heat capacity at 20 degreeC by isothermal titration calorimetry analysis
[4] = target: T2, Vascular endothelial growth factor A, long form (Homo sapiens); experiment: Binding affinity to human VEGF (13 to 107 residues) expressed in Escherichia coli Rosetta (DE3) cells assessed as change in enthalpy at 37 degreeC by isothermal titration calorimetry analysis
HUVEC [5] = experiment: Antiangiogenic activity in human HUVEC cells assessed as inhibition of VEGFA-induced capillary tube formation incubated for 6 hrs by matrigel based microscopic analysis; type: functional, cell-based
HUVEC [6] = experiment: Antiangiogenic activity in human HUVEC cells assessed as inhibition of VEGFA-induced cell migration incubated for 12 hrs by wound healing assay; type: functional, cell-based
[7] = target: T2, Vascular endothelial growth factor A, long form (Homo sapiens); experiment: Binding affinity to human VEGF (13 to 107 residues) expressed in Escherichia coli Rosetta (DE3) cells assessed as change in enthalpy at 20 degreeC by isothermal titration calorimetry analysis
[8] = target: T2, Vascular endothelial growth factor A, long form (Homo sapiens); experiment: Binding affinity to human VEGF (13 to 107 residues) expressed in Escherichia coli Rosetta (DE3) cells assessed as Gibbs free energy change at 20 degreeC by isothermal titration calorimetry analysis
[9] = target: T2, Vascular endothelial growth factor A, long form (Homo sapiens); experiment: Binding affinity to human VEGF (13 to 107 residues) expressed in Escherichia coli Rosetta (DE3) cells assessed as Gibbs free energy change at 37 degreeC by isothermal titration calorimetry analysis
[10] = target: T2, Vascular endothelial growth factor A, long form (Homo sapiens); experiment: Binding affinity to human VEGF (13 to 107 residues) expressed in Escherichia coli Rosetta (DE3) cells assessed as change in entropy at 37 degreeC by isothermal titration calorimetry analysis
[11] = target: T1, Vascular endothelial growth factor A, long form; experiment: Binding affinity to human VEGF (13 to 107 residues) expressed in Escherichia coli Rosetta (DE3) cells assessed as dissociation constant at 20 degreeC by isothermal titration calorimetry analysis

Row | SMILES | Kd [1] [nM] | -TdeltaS [2] [kcal/mol] | DeltaCp [3] [kcal/mol/K] | deltaH [4] [kcal/mol] | deltaH [7] [kcal/mol] | deltaG [8] [kcal/mol] | deltaG [9] [kcal/mol] | -TdeltaS [10] [kcal/mol] | Kd [11] [nM] | Activity (HUVEC [5]) | Activity (HUVEC [6])
1 | CC[C@H](C)[C@@H]1NC(=O)[C@H](CC(=O)O)NC(=O)[C@@H](NC(C)=O)CSSC[C@@H]2NC(=O)[C@H](CCCCNC(=O)C[C@@H](C(=O)N[C@@H](CC(C)C)C(N)=O)NC(=O)[C@H](CCC(=O)O)NC(=O)[C@H](Cc3ccccc3)NC2=O)NC(=O)[C@H](Cc2c[nH]c3ccccc23)NC(=O)[C@H](CCC(=O)O)NC(=O)[C@H](Cc2c[nH]c3ccccc23)NC(=O)[C@H](CCCCNC(C)=O)NC(=O)[C@H](C(C)C)NC(=O)[C@H](Cc2cnc[nH]2)NC1=O (Ac-CDIHVK(Ac)WEWKCFEDL-NH2; disulfide 1-11; lactam 10-14) | 272 | 9.66 | -0.36 | -25.5 | -19.5 | -9.79 | -9.32 | 16.2 | 50 | Dose-Dependent Effect | Dose-Dependent Effect
2 | CC[C@H](C)[C@@H]1NC(=O)[C@H](CC(=O)O)NC(=O)[C@@H](NC(C)=O)CSSC[C@@H]2NC(=O)[C@H](CCCCNC(=O)C[C@@H](C(=O)N[C@@H](CC(C)C)C(N)=O)NC(=O)[C@H](CCC(=O)O)NC(=O)[C@H](Cc3ccccc3)NC2=O)NC(=O)[C@H](Cc2c[nH]c3ccccc23)NC(=O)[C@H](CCC(=O)O)NC(=O)[C@H](Cc2c[nH]c3ccccc23)NC(=O)[C@H](CCCCNC(=O)CCOCCOCCOCCOCCOCCOCCOCCOCCOCCOCCOCCOCCOCCOCCOCCOCCOCCOCCOCCOCCOCCOCCOCCOCCOCCC(=O)O)NC(=O)[C@H](C(C)C)NC(=O)[C@H](Cc2cnc[nH]2)NC1=O (Ac-CDIHVK(X2)WEWKCFEDL-NH2; disulfide 1-11; lactam 10-14) | 1030 | 9.51 | -0.31 | -24 | -18.6 | -9.12 | -8.5 | 15.5 | 158 | Dose-Dependent Effect | Dose-Dependent Effect
3 | CC[C@H](C)[C@@H]1NC(=O)[C@H](CC(=O)O)NC(=O)[C@@H](NC(C)=O)CSSC[C@@H]2NC(=O)[C@H](CCCCNC(=O)C[C@@H](C(=O)N[C@@H](CC(C)C)C(N)=O)NC(=O)[C@H](CCC(=O)O)NC(=O)[C@H](Cc3ccccc3)NC2=O)NC(=O)[C@H](Cc2c[nH]c3ccccc23)NC(=O)[C@H](CCC(=O)O)NC(=O)[C@H](Cc2c[nH]c3ccccc23)NC(=O)[C@H](CCCCNC(=O)CCOCCOCCOCCOCCOCCOCCOCCOCCOCCOCCOCCOCCOCCOCCOCCOCCOCCOCCOCCOCCOCCC(=O)NCCCC[C@@H]2NC(=O)[C@H](C(C)C)NC(=O)[C@H](Cc3cnc[nH]3)NC(=O)[C@H]([C@@H](C)CC)NC(=O)[C@H](CC(=O)O)NC(=O)[C@@H](NC(C)=O)CSSC[C@@H]3NC(=O)[C@H](CCCCNC(=O)C[C@@H](C(=O)N[C@@H](CC(C)C)C(N)=O)NC(=O)[C@H](CCC(=O)O)NC(=O)[C@H](Cc4ccccc4)NC3=O)NC(=O)[C@H](Cc3c[nH]c4ccccc34)NC(=O)[C@H](CCC(=O)O)NC(=O)[C@H](Cc3c[nH]c4ccccc34)NC2=O)NC(=O)[C@H](C(C)C)NC(=O)[C@H](Cc2cnc[nH]2)NC1=O (I: Ac-CDIHVKWEWKCFEDL-NH2 / II: Ac-CDIHVKWEWKCFEDL-NH2; disulfide I:1-I:11, II:1-II:11; linker I:6-II:6 via X3; lactam I:10-I:14, II:10-II:14) | 37 | 26.1 | -0.86 | -51.3 | -36.6 | -10.5 | -10.5 | 40.7 | 15 |  | 

Further lines, with some results ahead:

Row | Kd [1] [nM] | -TdeltaS [2] [kcal/mol] | DeltaCp [3] [kcal/mol/K] | deltaH [4] [kcal/mol] | deltaH [7] [kcal/mol] | deltaG [8] [kcal/mol] | deltaG [9] [kcal/mol] | -TdeltaS [10] [kcal/mol] | Kd [11] [nM] | SMILES | Activity (HUVEC [5]) | Activity (HUVEC [6])
4 | 89 | 27.3 | -0.51 | -46.4 | -37.7 | -10.4 | -10 | 36.4 | 18 | CC[C@H](C)[C@@H]1NC(=O)[C@H](CC(=O)O)NC(=O)[C@@H](NC(C)=O)CSSC[C@@H]2NC(=O)[C@H](CCCCNC(=O)C[C@@H](C(=O)N[C@@H](CC(C)C)C(N)=O)NC(=O)[C@H](CCC(=O)O)NC(=O)[C@H](Cc3ccccc3)NC2=O)NC(=O)[C@H](Cc2c[nH]c3ccccc23)NC(=O)[C@H](CCC(=O)O)NC(=O)[C@H](Cc2c[nH]c3ccccc23)NC(=O)[C@H](CCCCNC(=O)CCOCCOCCOCCOCCOCCC(=O)NCCCC[C@@H]2NC(=O)[C@H](C(C)C)NC(=O)[C@H](Cc3cnc[nH]3)NC(=O)[C@H]([C@@H](C)CC)NC(=O)[C@H](CC(=O)O)NC(=O)[C@@H](NC(C)=O)CSSC[C@@H]3NC(=O)[C@H](CCCCNC(=O)C[C@@H](C(=O)N[C@@H](CC(C)C)C(N)=O)NC(=O)[C@H](CCC(=O)O)NC(=O)[C@H](Cc4ccccc4)NC3=O)NC(=O)[C@H](Cc3c[nH]c4ccccc34)NC(=O)[C@H](CCC(=O)O)NC(=O)[C@H](Cc3c[nH]c4ccccc34)NC2=O)NC(=O)[C@H](C(C)C)NC(=O)[C@H](Cc2cnc[nH]2)NC1=O (I: Ac-CDIHVKWEWKCFEDL-NH2 / II: Ac-CDIHVKWEWKCFEDL-NH2; disulfide I:1-I:11, II:1-II:11; linker I:6-II:6 via CO(CH2CH2O)5CH2CH2CO; lactam I:10-I:14, II:10-II:14) | Dose-Dependent Effect | Dose-Dependent Effect
5 | 56 | 26 | -0.57 | -46 | -36.3 | -10.3 | -10.3 | 35.7 | 20 | CC[C@H](C)[C@@H]1NC(=O)[C@H](CC(=O)O)NC(=O)[C@@H](NC(C)=O)CSSC[C@@H]2NC(=O)[C@H](CCCCNC(=O)C[C@@H](C(=O)N[C@@H](CC(C)C)C(N)=O)NC(=O)[C@H](CCC(=O)O)NC(=O)[C@H](Cc3ccccc3)NC2=O)NC(=O)[C@H](Cc2c[nH]c3ccccc23)NC(=O)[C@H](CCC(=O)O)NC(=O)[C@H](Cc2c[nH]c3ccccc23)NC(=O)[C@H](CCCCNC(=O)CCOCCOCCOCCOCCOCCOCCOCCOCCOCCOCCOCCOCCOCCC(=O)NCCCC[C@@H]2NC(=O)[C@H](C(C)C)NC(=O)[C@H](Cc3cnc[nH]3)NC(=O)[C@H]([C@@H](C)CC)NC(=O)[C@H](CC(=O)O)NC(=O)[C@@H](NC(C)=O)CSSC[C@@H]3NC(=O)[C@H](CCCCNC(=O)C[C@@H](C(=O)N[C@@H](CC(C)C)C(N)=O)NC(=O)[C@H](CCC(=O)O)NC(=O)[C@H](Cc4ccccc4)NC3=O)NC(=O)[C@H](Cc3c[nH]c4ccccc34)NC(=O)[C@H](CCC(=O)O)NC(=O)[C@H](Cc3c[nH]c4ccccc34)NC2=O)NC(=O)[C@H](C(C)C)NC(=O)[C@H](Cc2cnc[nH]2)NC1=O (I: Ac-CDIHVKWEWKCFEDL-NH2 / II: Ac-CDIHVKWEWKCFEDL-NH2; disulfide I:1-I:11, II:1-II:11; linker I:6-II:6 via CO(CH2CH2O)13CH2CH2CO; lactam I:10-I:14, II:10-II:14) |  | 
